Test results taken from patent US3953483A, “17-Nor-6-methyl-steroids” (Takeda Chemical Industries, Ltd., priority 1973, dated 1976).
“Also recorded” adds a separate entry of the source.

Tests used:
[1] = tested on: seminal vesicles, ventral prostate and dorsal prostates; test: anti-androgenic activity: inhibition of testosterone propionate-induced weight increase of secondary sex structures in castrated male rats, oral dosing; type: in vivo, rats (SD-JCL strain); settings: for Percent inhibition: Dorsal prostate / Percent inhibition: Seminal vesicles / Percent inhibition: Ventral prostate / Weight of organs: Dorsal prostate / Weight of organs: Seminal vesicles / Weight of organs: Ventral prostate: 5 rats; for Weight of organs: Dorsal prostate / Weight of organs: Seminal vesicles / Weight of organs: Ventral prostate: average ± standard error
Method: The following is the assay data on the anti-androgenic activity of 6-methylandrosta-4,6-dien-3-one(the test compound), a compound obtainable by the method of this invention. Testing procedure: Male rats of the SD-JCL strain, 21 days of age (body weights 40-55 g.) are castrated and, beginning on the next day, a daily dose of the test compound is suspended in 0.5 ml. of aqueous solvent and orally administered via a gastric catheter once daily, every day excepting Sundays, for a total of 10 times (12 days). Simultaneously with the administration of the test compound, a daily dose of 0.15 mg. of testosterone propionate is dissolved in 0.2 ml. of sesame oil and subcutaneously injected into the dorsal region of the neck.
On the day following the last day of administration, the rats are exsanguinated under ether anaesthesia and the seminal vesicles, ventral prostate and dorsal prostates are weighed. The anti-androgenic potency of the test compound is determined as follows.
dosed with testosterone
- dosed with testosterone
(%) dosed with testosterone

liver = settings: known compound, background; cited from earlier work
anti-androgenic activity = settings: known compounds, background; cited from earlier work
[2] = test compound 9.6mg. × 10 oral + testosterone propionate 0.15mg. × 10 s.c.
[3] = test compound 38.4mg. × 10 oral + testosterone propionate 0.15mg. × 10 s.c.
[4] = testosterone propionate 0.15mg. × 10 s.c. alone

CC1=C[C@H]2[C@@H]3CCC[C@@]3(C)CC[C@@H]2[C@@]2(C)CCC(=O)C=C12 [test compound, 6-methylandrosta-4,6-dien-3-one]
inhibition of weight increases of secondary sex structures / anti-androgenic activity (in words) ([1]; oral, caused by testosterone propionate): significantly inhibits the weight increases of various secondary sex structures; also recorded: the degree of inhibition (percent inhibition) being proportional to the dosage; also recorded: potent anti-androgenic activity | Percent inhibition: Dorsal prostate [1, 2]: 38% | Percent inhibition: Seminal vesicles [1, 2]: 53% | Percent inhibition: Ventral prostate [1, 2]: 34% | Weight of organs: Dorsal prostate [1, 2]: 62 ± 3 mg | Weight of organs: Seminal vesicles [1, 2]: 164 ± 15 mg | Weight of organs: Ventral prostate [1, 2]: 100 ± 4 mg | Percent inhibition: Dorsal prostate [1, 3]: 59% | Percent inhibition: Seminal vesicles [1, 3]: 77% | Percent inhibition: Ventral prostate [1, 3]: 53% | Weight of organs: Dorsal prostate [1, 3]: 44 ± 2 mg | Weight of organs: Seminal vesicles [1, 3]: 82 ± 5 mg | Weight of organs: Ventral prostate [1, 3]: 74 ± 4 mg

CCCCCC(=O)O[C@]1(C(C)=O)CC[C@H]2[C@@H]3CCC4=CC(=O)CC[C@@H]4[C@H]3CC[C@@]21C [17α-caproyloxy-19-norprogesterone]
side effect (liver): causes `fatty liver` as a side effect

CCC(=O)O[C@H]1CC[C@H]2[C@@H]3CCC4=CC(=O)CC[C@]4(C)[C@H]3CC[C@]12C [testosterone propionate, reference compound]
Weight of organs: Dorsal prostate [1, 4]: 96 ± 3 mg | Weight of organs: Seminal vesicles [1, 4]: 337 ± 27 mg | Weight of organs: Ventral prostate [1, 4]: 147 ± 7 mg

CC[C@H]1C[C@H]2[C@@H]3CCC4=CC(=O)CC[C@@H]4[C@H]3CC[C@]2(C)[C@H]1OC(C)=O [17β-acetyloxy-16β-ethylestr-4-en-3-one]
effectiveness by oral administration (anti-androgenic activity): little effective by oral administration

C[C@]12CC[C@H]3[C@@H](CCC4=CC(=O)CC[C@@H]43)[C@@H]1C[C@H](C1CCCCC1)[C@@H]2O [16β-cyclohexyl-17β-hydroxyestr-4-en-3-one]
effectiveness by oral administration (anti-androgenic activity): little effective by oral administration

CC[C@H]1C[C@H]2[C@@H]3CCC4=CC(=O)CC[C@@H]4[C@H]3CC[C@]2(C)[C@H]1O [16β-ethyl-17β-hydroxyestr-4-en-3-one]
effectiveness by oral administration (anti-androgenic activity): little effective by oral administration
